Data from patent US9181264B2, “Fused heteroaryls and their uses” (Hutchison MediPharma Limited, priority 2011, dated 2015).

Biological target: T1, PI3Kα kinase (Homo sapiens, UniProt P42336)
T1 construct: purchased Invitrogen PV4788
Test: PI3Ka Transcreener ADP assay (fluorescence polarization)
Assay type: biochemical
Details: 10 μM ATP, 30 μmol/L lipid substrate; read-out: IC50, inhibition of PI3Kα kinase
Experimental: Fluorescence polarization was used in this assay. The final conditions for kinase assay are 10 μM of ATP, 0.2 ng/μL of PI3Kα kinase, 30 μmol/L of lipid substrate and assay buffer (50 mmol/L of HEPES (pH 7.5), 100 mmol/L of NaCl, 1 mmol/L of EGTA, 3 mmol/L of MgCl2, 1 mmol/L of DTT and 0.03% CHAPS and 2% DMSO).
5 μL of test compounds in 10% DMSO and 10 μL of 0.5 ng/μL PI3K kinase (Invitrogen, PV4788) in assay buffer are put into a 96-well plate (Greiner, Cat. 675076), and then the reaction is started by the addition of 10 μL of 75 μmol/L PIP2, (PS Lipid Substrate Invitrogen, PV5100), and 25 μmol/L ATP mixture. After the mixture is incubated for 60 minutes at room temperature, 25 μL of transcreener Kinase Kit reagent—ADP Detection Mix—(Bellbrook Labs) is added, and the reaction is continued for an additional 1.5 hours. At the end, the plate is read in a Tecan Infinite F500 at excitation of 610 nm and emission of 670 nm.
A standard curve for ADP is obtained in a parallel way by replacing compound and PI3Kα kinase with DMSO and assay buffer, respectively. Different concentration of ADP, 0-10 μM, and ATP, 10-0 μM (ATP+ADP equal to 10 μM) are applied instead of a fixed concentration of ATP in this standard curve assay. Other conditions are the same as described above. The standard curve is plotted using Origin 8.0 software. The inhibition of test compound on ADP production is calculated based on ADP concentration from standard curve. IC50 is obtained using XLfit 2.0 software.

T1 sequence (P42336 whole entry): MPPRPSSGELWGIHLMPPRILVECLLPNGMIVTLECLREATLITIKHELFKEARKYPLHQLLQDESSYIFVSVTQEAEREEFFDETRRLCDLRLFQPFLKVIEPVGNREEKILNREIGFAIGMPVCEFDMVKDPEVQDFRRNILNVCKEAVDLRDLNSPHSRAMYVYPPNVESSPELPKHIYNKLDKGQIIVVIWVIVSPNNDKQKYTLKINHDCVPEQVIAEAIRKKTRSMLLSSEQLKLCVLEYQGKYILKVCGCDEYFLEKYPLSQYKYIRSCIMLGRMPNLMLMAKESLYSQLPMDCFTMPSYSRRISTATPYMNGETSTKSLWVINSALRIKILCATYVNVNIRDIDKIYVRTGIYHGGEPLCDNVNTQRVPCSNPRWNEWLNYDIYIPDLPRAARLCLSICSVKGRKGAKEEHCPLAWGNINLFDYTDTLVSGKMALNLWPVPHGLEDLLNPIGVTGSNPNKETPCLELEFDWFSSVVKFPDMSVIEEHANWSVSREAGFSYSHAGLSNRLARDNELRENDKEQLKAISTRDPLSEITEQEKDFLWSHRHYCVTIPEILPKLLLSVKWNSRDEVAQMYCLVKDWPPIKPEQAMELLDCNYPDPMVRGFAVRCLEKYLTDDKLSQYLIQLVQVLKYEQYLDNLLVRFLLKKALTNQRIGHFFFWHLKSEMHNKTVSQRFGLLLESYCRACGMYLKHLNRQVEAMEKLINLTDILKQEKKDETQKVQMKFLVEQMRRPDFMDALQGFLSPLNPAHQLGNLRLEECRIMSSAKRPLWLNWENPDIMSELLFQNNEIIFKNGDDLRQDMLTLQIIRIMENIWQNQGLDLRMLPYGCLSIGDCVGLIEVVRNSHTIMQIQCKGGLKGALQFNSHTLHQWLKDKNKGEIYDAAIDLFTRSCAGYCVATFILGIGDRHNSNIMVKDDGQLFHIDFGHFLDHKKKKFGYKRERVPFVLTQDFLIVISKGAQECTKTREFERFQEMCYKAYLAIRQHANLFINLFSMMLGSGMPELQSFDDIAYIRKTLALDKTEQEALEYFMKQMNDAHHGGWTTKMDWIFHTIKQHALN
T1 sequence (P27986 whole entry partner): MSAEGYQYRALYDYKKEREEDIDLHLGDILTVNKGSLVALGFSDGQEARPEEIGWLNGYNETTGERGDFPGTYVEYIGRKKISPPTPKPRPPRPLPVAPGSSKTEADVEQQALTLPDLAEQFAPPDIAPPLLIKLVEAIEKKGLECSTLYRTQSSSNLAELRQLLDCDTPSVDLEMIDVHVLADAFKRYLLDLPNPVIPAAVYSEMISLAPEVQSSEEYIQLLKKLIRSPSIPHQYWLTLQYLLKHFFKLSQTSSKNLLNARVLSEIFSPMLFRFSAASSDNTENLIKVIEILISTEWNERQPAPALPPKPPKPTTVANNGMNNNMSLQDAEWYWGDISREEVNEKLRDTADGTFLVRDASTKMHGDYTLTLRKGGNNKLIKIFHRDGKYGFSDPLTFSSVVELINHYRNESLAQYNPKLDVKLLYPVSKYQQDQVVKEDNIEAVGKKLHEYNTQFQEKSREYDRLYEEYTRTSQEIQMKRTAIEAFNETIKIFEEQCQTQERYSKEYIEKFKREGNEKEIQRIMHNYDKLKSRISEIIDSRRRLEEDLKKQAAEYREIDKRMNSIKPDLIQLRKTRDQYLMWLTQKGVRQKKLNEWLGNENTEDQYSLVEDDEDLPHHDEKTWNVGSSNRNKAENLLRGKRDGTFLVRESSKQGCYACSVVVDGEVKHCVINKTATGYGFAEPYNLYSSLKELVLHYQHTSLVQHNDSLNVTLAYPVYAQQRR

Row | Structure (SMILES) | IC50
1 | CC(C)(C#N)C(=O)c1ccc(-c2nnc3cnc4ccc(-c5cnc(N)c(C(F)(F)F)c5)cc4n23)cc1 [Compound 68] | < 100 nM
2 | Nc1ncc(-c2ccc3ncc4nnc(-c5ccc(F)cn5)n4c3c2)cc1C(F)(F)F [Compound 59] | < 100 nM
3 | CS(=O)(=O)c1ccc(-c2nnc3cnc4ccc(-c5cnc(N)c(C(F)(F)F)c5)cc4n23)cc1 [Compound 71] | < 100 nM
4 | C[C@@H](O)C(=O)N1CCC(n2cnc3cnc4ccc(-c5cnc(N)c(C(F)(F)F)c5)nc4c32)CC1 [Compound 110] | < 100 nM
5 | CC(C)(C#N)c1ccc(-c2nnc3cnc4ccc(-c5ccc6[nH]ncc6c5)cc4n23)cc1 [Compound 61] | < 100 nM
6 | Nc1ncc(-c2ccc3ncc4ncn(CCN5CCOCC5)c4c3n2)cc1C(F)(F)F [Compound 109] | < 100 nM
7 | COc1cc(-c2ccc3ncc4ncn(C5CCN(CC(=O)N(C)C)CC5)c4c3n2)cnc1OC [Compound 99] | < 100 nM
8 | Nc1ncc(-c2ccc3ncc4nnc(C5CCC(O)CC5)n4c3c2)cc1C(F)(F)F (stereo not drawn) [Compound 85] | < 100 nM
9 | Cc1nc2cnc3ccc(-c4cnc(N)c(C(F)(F)F)c4)nc3c2n1C1CCN(C(=O)[C@@H](C)O)CC1 [Compound 126] | < 100 nM
10 | Cc1ccc(-c2ccc3ncc4nc(C)n(C5CCN(C(=O)[C@H](C)O)CC5)c4c3n2)cn1 [Compound 127] | < 100 nM
11 | CC(C)C(=O)N1CCC(n2nnc3cnc4ccc(-c5cnc(N)c(F)c5)nc4c32)CC1 [Compound 31] | < 100 nM
12 | Cc1cc(-c2ccc3ncc4nnn(C5CCN(C(=O)[C@@H](C)O)CC5)c4c3n2)cnc1N [Compound 22] | < 100 nM
13 | CC(=O)N1CCC(Cc2nnc3cnc4ccc(-c5ccc6nc(N)sc6c5)cc4n23)CC1 [Compound 83] | < 100 nM
14 | COc1ncc(-c2ccc3ncc4nncn4c3c2)cc1NS(=O)(=O)c1ccc(F)cc1F [Compound 161] | < 100 nM
15 | COCCN1CCC(n2c(C)nc3cnc4ccc(-c5cnc(N)c(C(F)(F)F)c5)nc4c32)CC1 [Compound 130] | < 100 nM
16 | N#Cc1cccc(-c2nnc3cnc4ccc(-c5cnc(N)c(C(F)(F)F)c5)cc4n23)c1 [Compound 62] | < 100 nM
17 | Cc1nc2cnc3ccc(-c4cnc5[nH]ccc5c4)nc3c2n1C1CCOCC1 [Compound 135] | < 100 nM
18 | C/C=C/C(=O)N1CCC(n2c(C)nc3cnc4ccc(-c5cnc(N)c(C(F)(F)F)c5)nc4c32)CC1 [Compound 145] | < 100 nM
19 | CCCCC(=O)N1CCC(n2nnc3cnc4ccc(-c5cnc(N)c(C(F)(F)F)c5)nc4c32)CC1 [Compound 37] | < 100 nM
20 | COc1ncc(-c2ccc3ncc4nnc(CN5CCCC5)n4c3c2)cc1NS(C)(=O)=O [Compound 174] | < 100 nM
21 | Cc1nc2cnc3ccc(-c4cnc(N)c(C(F)(F)F)c4)nc3c2n1C1CCN(S(C)(=O)=O)CC1 [Compound 138] | < 100 nM

Row | Structure (SMILES) | IC50
22 | Cc1nc2cnc3ccc(-c4cnc(N)c(C(F)(F)F)c4)nc3c2n1CCCN1CCOCC1 [Compound 142] | < 100 nM
23 | Nc1ncc(-c2ccc3ncc4nnn(-c5cccc(Cl)c5)c4c3c2)cn1 [Compound 13] | < 100 nM
24 | Nc1ncc(-c2ccc3ncc4nnn(C5CCN(CC6CCOCC6)CC5)c4c3n2)cc1C(F)(F)F [Compound 48, 5-(1-(1-((tetrahydro-2H-pyran-4-yl)methyl)piperidin-4-yl)-1H-[1,2,3]triazolo[4,5-c][1,5]naphthyridin-8-yl)-3-(trifluoromethyl)pyridin-2-amine] | < 100 nM
25 | COc1ncc(-c2ccc3ncc4ncn(CCN5CCOCC5)c4c3n2)cc1NS(C)(=O)=O [Compound 177] | < 100 nM
26 | C[C@@H](O)C(=O)N1CCC(c2nnc3cnc4ccc(-c5ccc6nc(N)sc6c5)cc4n23)CC1 [Compound 81] | < 100 nM
27 | COc1ncc(-c2ccc3ncc4nnc(CCN5CCOCC5)n4c3c2)cc1NS(C)(=O)=O [Compound 171] | < 100 nM
28 | CC(C)(C#N)c1ccc(-c2nnc3cnc4ccc(-c5cnc(N)c(C(F)(F)F)c5)cc4n23)cn1 [Compound 54] | < 100 nM
29 | Nc1ncc(-c2ccc3ncc4nnn(C5CCN(C(=O)c6ccccn6)CC5)c4c3n2)cc1C(F)(F)F [Compound 40] | < 100 nM
30 | Cc1cc(-c2ccc3ncc4nnn(C5CCN(C(=O)[C@H](C)O)CC5)c4c3n2)cnc1N [Compound 3] | < 100 nM
31 | COc1ncc(-c2ccc3ncc4nc(C)n(C5CCN(S(C)(=O)=O)CC5)c4c3n2)cn1 [Compound 139] | < 100 nM
32 | COc1cc(-c2ccc3ncc4nnc(-c5ccc(C(C)(C)C#N)cc5)n4c3c2)cnc1OC [Compound 76] | < 100 nM
33 | CC(=O)N1CCCC(c2nnc3cnc4ccc(-c5ccc6nc(N)sc6c5)cc4n23)C1 (stereo not drawn) [Compound 84] | < 100 nM
34 | N#Cc1ccc(-c2nnc3cnc4ccc(-c5cnc(N)c(C(F)(F)F)c5)cc4n23)cc1 [Compound 64] | < 100 nM
35 | C#Cc1cc(-c2ccc3ncc4ncn(C5CCN(C(=O)C6CC6)CC5)c4c3n2)cnc1N [Compound 112] | < 100 nM
36 | Nc1ncc(-c2ccc3ncc4nnc(-c5ccc(F)cc5)n4c3c2)cc1C(F)(F)F [Compound 70] | < 100 nM
37 | CCNC(=O)N1CCC(n2cnc3cnc4ccc(-c5cnc(N)c(C(F)(F)F)c5)nc4c32)CC1 [Compound 101] | < 100 nM
38 | CC(=O)N1CCC(n2nnc3cnc4ccc(-c5cnc(N)c(C(F)(F)F)c5)cc4c32)CC1 [Compound 15] | < 100 nM
39 | C[C@H](O)C(=O)N1CCC(c2nnc3cnc4ccc(-c5ccc6nc(N)sc6c5)cc4n23)CC1 [Compound 80] | < 100 nM
40 | Cc1ccc(-c2ccc3ncc4ncn(C5CCN(CC(=O)N(C)C)CC5)c4c3n2)cn1 [Compound 100] | < 100 nM
41 | CC(C)(C#N)c1ccc(-c2nnc3cnc4ccc(-c5cnc(N)c(Cl)c5)cc4n23)cc1 [Compound 77] | < 100 nM
42 | CC(C)(C#N)c1ccc(-n2cnc3cnc4ccc(-c5cnc(N)c(C(F)(F)F)c5)nc4c32)cc1 [Compound 104] | < 100 nM

Row | Structure (SMILES) | IC50
43 | Cc1nc2cnc3ccc(-c4cnc(N)c(C(F)(F)F)c4)nc3c2n1C1CCN(CC(=O)N2CCOCC2)CC1 [Compound 124] | < 100 nM
44 | COc1ncc(-c2ccc3ncc4n[nH]c(=O)n4c3c2)cc1NS(=O)(=O)c1ccc(F)cc1F [Compound 163] | < 100 nM
45 | C=CC(=O)N1CCC(n2nnc3cnc4ccc(-c5cnc(N)c(C)c5)nc4c32)CC1 [Compound 29] | < 100 nM
46 | Nc1nc2ccc(-c3ccc4ncc5nnc(-c6ccc(F)cn6)n5c4c3)cc2s1 [Compound 60] | < 100 nM
47 | Cc1nc2cnc3ccc(-c4cnc(N)c(C(F)(F)F)c4)nc3c2n1C1CCN(C(=O)c2ccccn2)CC1 [Compound 132] | < 100 nM
48 | COc1ncc(-c2ccc3ncc4nnc(C)n4c3c2)cc1NS(=O)(=O)c1ccc(C)cc1 [Compound 179, N-(2-methoxy-5-(1-methyl-[1,2,4]triazolo[4,3-a]quinoxalin-8-yl)pyridin-3-yl)-4-methylbenzenesulfonamide] | < 100 nM
49 | CC(C)(C#N)c1ccc(-c2nnc3cnc4ccc(-c5ccc6nc(N)oc6c5)cc4n23)cn1 [Compound 67] | < 100 nM
50 | CC(C)(C#N)c1ccc(-c2nnc3cnc4ccc(-c5cnc6[nH]ccc6c5)cc4n23)cc1 [Compound 69] | < 100 nM
51 | Nc1ncc(-c2ccc3ncc4nnn(C5CCN(Cc6ccccn6)CC5)c4c3n2)cc1C(F)(F)F [Compound 47] | < 100 nM
52 | COc1ncc(-c2ccc3ncc4nnc(CN5CCCC5)n4c3c2)cc1NS(=O)(=O)c1ccccc1 [Compound 175] | < 100 nM
53 | Nc1ncc(-c2ccc3ncc4nnn(C5CCN(C(=O)C6CC6)CC5)c4c3n2)cc1F [Compound 11] | < 100 nM
54 | COc1ncc(-c2ccc3ncc4nccn4c3c2)cc1NS(=O)(=O)c1ccc(F)cc1F [Compound 173] | < 100 nM
55 | N#Cc1ccc(-c2nnc3cnc4ccc(-c5ccc6nc(N)sc6c5)cc4n23)nc1 [Compound 73] | < 100 nM
56 | Cc1cc(-c2ccc3ncc4ncn(-c5ccc(C(C)(C)C#N)nc5)c4c3n2)cnc1N [Compound 90] | < 100 nM
57 | CC#CC(=O)N1CCC(n2c(C)nc3cnc4ccc(-c5cnc(N)c(C(F)(F)F)c5)nc4c32)CC1 [Compound 144] | < 100 nM
58 | Cc1ccc(-c2ccc3ncc4ncn(C5CCN(C(=O)[C@H](C)O)CC5)c4c3n2)cn1 [Compound 113] | < 100 nM
59 | CCS(=O)(=O)Nc1cc(-c2ccc3ncc4nnc(C)n4c3c2)cnc1OC [Compound 164] | < 100 nM
60 | C[C@H](O)C(=O)N1CCC(c2nnc3cnc4ccc(-c5cnc(N)c(C(F)(F)F)c5)cc4n23)CC1 [Compound 79, (S)-1-(4-(8-(6-amino-5-(trifluoromethyl)pyridin-3-yl)-[1,2,4]triazolo[4,3-a]quinoxalin-1-yl)piperidin-1-yl)-2-hydroxypropan-1-one] | < 100 nM
61 | Nc1ncc(-c2ccc3ncc4nnn(C5CCN(C(=O)CC6CC6)CC5)c4c3n2)cc1C(F)(F)F [Compound 38] | < 100 nM
62 | COCc1nnc2cnc3ccc(-c4cnc(OC)c(NS(=O)(=O)C5CC5)c4)cc3n12 [Compound 170] | < 100 nM
63 | Nc1ncc(-c2ccc3ncc4nnn(C5CCN(C(=O)C6(O)CC6)CC5)c4c3n2)cc1C(F)(F)F [Compound 39] | < 100 nM
